Where two headings read alike, the source gives them in different places.
How the values were obtained:
Assay in all cases: Proliferation assay (CellTiter Glo)
THP1 = type: cell-based, human; details: 96 hours; for EC50: Homo sapiens, THP-1
Procedure: (§1) The dose range for most compounds was 4.6 nM-30 μM. The dose ranges for some compounds were adjusted downward to 0.46 nM-3 μM or 0.08 nM-0.5 μM or 0.03 nM-0.2 μM. […] The results are shown in Tables 3-6 for pancreatic cancer, lung cancer, colon/gastric cancer, and leukemia.

HL60 = type: cell-based, human; details: 96 hours; for EC50: Homo sapiens, HL-60
Procedure: as §1

MiaPaCa-2 = type: cell-based; details: 96 hours; for EC50: Homo sapiens, MIA PaCa-2
AGS = type: cell-based; details: 96 hours; for EC50: Homo sapiens
Procedure: as §1

Pan2.03 = type: cell-based; details: 96 hours
Procedure: as §1

A549 = type: cell-based; details: 96 hours; for EC50: Homo sapiens
Procedure: as §1

H727 = type: cell-based; details: 96 hours; for EC50: Homo sapiens, NCI-H727
Procedure: as §1

Pan2.13 = type: cell-based; details: 96 hours
Procedure: as §1

KP-4 = type: cell-based; details: 96 hours; for EC50: Homo sapiens
Procedure: as §1

Capan-1 = type: cell-based; details: 96 hours; for EC50: Homo sapiens
Procedure: as §1

H358 = type: cell-based; details: HE58, 96 hours; for EC50: Homo sapiens, NCI-H358
Procedure: as §1

CCRF-CEM = type: cell-based; details: 96 hours; for EC50: Homo sapiens
Procedure: as §1

H441 = type: cell-based; details: 96 hours; for EC50: Homo sapiens, NCI-H441
Procedure: as §1

SW620 = type: cell-based; details: 96 hours
Procedure: as §1

LS180 = type: cell-based; details: 96 hours
Procedure: as §1

HCT116 = type: cell-based; details: 96 hours; for EC50: Homo sapiens, HCT-116
Procedure: as §1

AsPC-1 = type: cell-based; details: 96 hours; for EC50: Homo sapiens, ASPC1
Procedure: as §1

H1915 = type: cell-based; details: H1915 (RAS WT); 96 hours
Colo205 = type: cell-based; details: Colo205 (RAS WT); 96 hours
SW900 = type: cell-based; details: SW900 (K-RAS: G12V); 96 hours
BxPC-3 = type: cell-based; details: BxPC-3 (RAS WT); 96 hours
H838 = type: cell-based; details: H838 (RAS WT); 96 hours
RPMI8226 = type: cell-based; details: RPM18226; 96 hours
HT29 = type: cell-based; details: HT29 (RAS WT); 96 hours

Which EC50 (THP1; THP1 (N-RAS: G12D), absolute EC50, read-out: Ab EC50) does the source give for C/C=C(/C)C(=O)O[C@H]1C(C)=C[C@]23C(=O)[C@@H](C=C(CO)[C@@H](O)[C@]12O)[C@H]1[C@@H](C[C@H]3C)C1(C)C [Compound K102, ingenol-3-angelate] here?
Its EC50 is 15 nM.

And the EC50 (THP1; THP1, relative EC50, read-out: Re EC50)?
Its EC50 is 12 nM.

And the “Top Inhibition %” value (THP1; THP1, % of top inhibition)?
The value was 52.4%.

What about the “Top Inhibition %” value (HL60; HL60, % of top inhibition) of the same molecule?
Its value is 60.1%.

What about the EC50 (HL60; HL60 (N-RAS: Q61L), absolute EC50, read-out: Ab EC50) of the same molecule?
Its EC50 is 15 nM.

And the EC50 (HL60; HL60, relative EC50, read-out: Re EC50)?
The EC50 was 14 nM.

And the EC50 (MiaPaCa-2; MiaPaCa-2 (K-RAS: G12C), absolute EC50, read-out: Ab EC50)?
Its EC50 is 13 nM.

What about the EC50 (MiaPaCa-2; MiaPaCa-2, relative EC50, read-out: Re EC50) of the same molecule?
The EC50 was 9 nM.

What about the “Top Inhibition %” value (MiaPaCa-2; MiaPaCa-2, % of top inhibition) of the same molecule?
The value was 79.3%.

And the “Top Inhibition %” value (AGS; AGS, % of top inhibition)?
Its value is 42.9%.

And the EC50 (AGS; AGS (gastric, K-RAS: G12D), absolute EC50, read-out: Ab EC50)?
Its EC50 is over 3000 nM.

And the EC50 (AGS; AGS, relative EC50, read-out: Re EC50)?
Its EC50 is 12 nM.

And the EC50 (Pan2.03; Pan2.03 (K-RAS: G12D), absolute EC50, read-out: Ab EC50)?
Its EC50 is over 3000 nM.

And the “Top Inhibition %” value (Pan2.03; Pan2.03, % of top inhibition)?
Its value is 36.9%.

What about the EC50 (Pan2.03; Pan2.03, relative EC50, read-out: Re EC50) of the same molecule?
The EC50 was 3.3 nM.

What about the “Top Inhibition %” value (A549; A549, % of top inhibition) of the same molecule?
The value was 80.8%.

And the EC50 (A549; A549 (K-RAS: G12S), absolute EC50, read-out: Ab EC50)?
The EC50 was 17 nM.

And the EC50 (A549; A549, relative EC50, read-out: Re EC50)?
Its EC50 is 17 nM.

What about the “Top Inhibition %” value (H727; H727, % of top inhibition) of the same molecule?
The value was 61.0%.

And the EC50 (H727; H727 (K-RAS: G12V), absolute EC50, read-out: Ab EC50)?
Its EC50 is 22 nM.

And the EC50 (H727; H727, relative EC50, read-out: Re EC50)?
The EC50 was 4.3 nM.

And the EC50 (Pan2.13; Pan2.13 (K-RAS: Q61H), absolute EC50, read-out: Ab EC50)?
The EC50 was 3.9 nM.

What about the “Top Inhibition %” value (Pan2.13; Pan2.13, % of top inhibition) of the same molecule?
Its value is 51.7%.

And the EC50 (Pan2.13; Pan2.13, relative EC50, read-out: Re EC50)?
The EC50 was 1.2 nM.

What about the EC50 (KP-4; KP-4 (K-RAS: G12C), absolute EC50, read-out: Ab EC50) of the same molecule?
The EC50 was 15 nM.

And the EC50 (KP-4; KP-4, relative EC50, read-out: Re EC50)?
The EC50 was 15 nM.

And the “Top Inhibition %” value (KP-4; KP-4, % of top inhibition)?
Its value is 62.2%.

What about the “Top Inhibition %” value (Capan-1; Capan-1, % of top inhibition) of the same molecule?
The value was 46.9%.

And the EC50 (Capan-1; Capan-1 (K-RAS: G12V), absolute EC50, read-out: Ab EC50)?
The EC50 was over 30000 nM.

And the EC50 (Capan-1; Capan-1, relative EC50, read-out: Re EC50)?
Its EC50 is 13 nM.

What about the “Top Inhibition %” value (H358; % of top inhibition) of the same molecule?
Its value is 57.5%.

What about the EC50 (H358; absolute EC50, read-out: Ab EC50) of the same molecule?
The EC50 was 97 nM.

What about the EC50 (H358; relative EC50, read-out: Re EC50) of the same molecule?
The EC50 was 4.5 nM.

What about the “Top Inhibition %” value (CCRF-CEM; CCRF-CEM, % of top inhibition) of the same molecule?
Its value is 30.3%.

What about the EC50 (CCRF-CEM; CCRF-CEM (K-RAS: G12D), absolute EC50, read-out: Ab EC50) of the same molecule?
Its EC50 is over 3000 nM.

And the EC50 (CCRF-CEM; CCRF-CEM, relative EC50, read-out: Re EC50)?
The EC50 was 0.9 nM.

What about the “Top Inhibition %” value (H441; H441, % of top inhibition) of the same molecule?
Its value is 50.6%.

And the EC50 (H441; H441 (K-RAS: G12V), absolute EC50, read-out: Ab EC50)?
The EC50 was 1010 nM.

And the EC50 (H441; H441, relative EC50, read-out: Re EC50)?
Its EC50 is 2.4 nM.

What about the EC50 (SW620; Homo sapiens, SW-620, SW620 (K-RAS: G12V), absolute EC50, read-out: Ab EC50) of the same molecule?
Its EC50 is over 30 µM.

What about the “Top Inhibition %” value (SW620; SW620, % of top inhibition) of the same molecule?
Its value is 0.0%.

What about the EC50 (LS180; Homo sapiens, LS180 (K-RAS: G12D), absolute EC50, read-out: Ab EC50) of the same molecule?
Its EC50 is over 30 µM.

What about the “Top Inhibition %” value (LS180; LS180, % of top inhibition) of the same molecule?
Its value is 9.3%.

And the “Top Inhibition %” value (HCT116; HCT116, % of top inhibition)?
The value was 23.2%.

And the EC50 (HCT116; HCT116 (K-RAS: G13D), absolute EC50, read-out: Ab EC50)?
Its EC50 is over 3000 nM.

What about the EC50 (HCT116; HCT116, relative EC50, read-out: Re EC50) of the same molecule?
Its EC50 is 21 nM.

And the “Top Inhibition %” value (AsPC-1; AsPC-1, % of top inhibition)?
The value was 37.8%.

And the EC50 (AsPC-1; AsPC-1 (K-RAS: G12D), absolute EC50, read-out: Ab EC50)?
The EC50 was over 3000 nM.

What about the EC50 (AsPC-1; AsPC-1, relative EC50, read-out: Re EC50) of the same molecule?
Its EC50 is 14 nM.

What about the “Top Inhibition %” value (H1915) of the same molecule?
The value was 30.8%.

What about the “Top Inhibition %” value (Colo205) of the same molecule?
The value was 86.0%.

What about the “Top Inhibition %” value (SW900) of the same molecule?
The value was 20.1%.

What about the “Top Inhibition %” value (BxPC-3) of the same molecule?
Its value is 44.13%.

What about the “Top Inhibition %” value (H838) of the same molecule?
Its value is 25.5%.

What about the “Top Inhibition %” value (RPMI8226) of the same molecule?
The value was 27.06%.

And the “Top Inhibition %” value (HT29)?
Its value is 17.3%.

Source: patent US10722484B2, “Methods of cancer treatment” (K-Gen, Inc., priority 2016, dated 2020)
